Reference: paper PMC8863071, “Functional Analysis of H^+-Pumping Membrane-Bound Pyrophosphatase, ADP-Glucose Synthase, and Pyruvate Phosphate Dikinase as Pyrophosphate Sources in Clostridium thermocellum” (Applied and Environmental Microbiology, 2022)

Molecular target: T1, ADP-glucose synthase (Ags; ags1 ags2) (Acetivibrio thermocellus, UniProt A3DK82)
T1 construct: gene glgC; both subunits co-expressed untagged from pTrc99a (pTK30) in E. coli BL21; cell extract
T1 sequence (A3DK82 1-426): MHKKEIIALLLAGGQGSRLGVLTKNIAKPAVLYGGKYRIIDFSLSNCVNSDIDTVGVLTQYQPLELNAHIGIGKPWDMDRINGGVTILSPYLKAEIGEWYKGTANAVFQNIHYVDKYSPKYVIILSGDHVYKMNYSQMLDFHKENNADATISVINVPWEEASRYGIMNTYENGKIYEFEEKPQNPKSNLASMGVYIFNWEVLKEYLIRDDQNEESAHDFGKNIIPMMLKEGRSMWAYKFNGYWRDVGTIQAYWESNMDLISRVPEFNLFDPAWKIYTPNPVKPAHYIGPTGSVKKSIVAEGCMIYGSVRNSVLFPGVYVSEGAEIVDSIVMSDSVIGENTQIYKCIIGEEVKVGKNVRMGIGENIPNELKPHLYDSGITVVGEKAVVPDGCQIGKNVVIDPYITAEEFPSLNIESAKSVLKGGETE
T1 sequence (A3DK83 1-373 partner): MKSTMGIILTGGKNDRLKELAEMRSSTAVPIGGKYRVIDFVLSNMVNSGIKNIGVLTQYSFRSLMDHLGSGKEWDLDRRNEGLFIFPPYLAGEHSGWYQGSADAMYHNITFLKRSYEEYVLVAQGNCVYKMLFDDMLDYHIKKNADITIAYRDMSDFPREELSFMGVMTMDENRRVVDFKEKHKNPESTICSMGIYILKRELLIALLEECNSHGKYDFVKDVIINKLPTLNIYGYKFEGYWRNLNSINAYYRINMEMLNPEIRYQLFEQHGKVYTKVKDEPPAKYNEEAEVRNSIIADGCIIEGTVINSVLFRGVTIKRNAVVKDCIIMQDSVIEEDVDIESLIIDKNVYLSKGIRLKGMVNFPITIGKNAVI
Experiment: coupled NADP+ assay, pyrophosphorolysis direction
Format: biochemical
Conditions: 1 mM ADP-glucose, 1 mM PPi, 4 mM MgCl2, 2 mM fructose-1,6-bisphosphate, pH 7.5, 55°C

## Nc1ncnc2c1ncn2[C@@H]1O[C@H](COP(=O)(O)OP(=O)(O)O[C@H]2O[C@H](CO)[C@@H](O)[C@H](O)[C@H]2O)[C@@H](O)[C@H]1O [ADP-glucose]
  coupled NADP+ assay, pyrophosphorolysis direction: the activity was found to be ADP-glucose dependent
